Measurements as given in publication PMC3723632, “A Multi-targeted Drug Candidate with Dual Anti-HIV and Anti-HSV Activity” (PLoS Pathogens, 2013).
≈ marks a conversion by molar mass, not a printed value.

Columns and labels:
HIV-1(IIIB) = assay: Anti-HIV-1 activity in CD4+ T-lymphocyte CEM cell cultures; type: cell-based; conditions: Human immunodeficiency virus 1, CCRF-CEM, virus-induced cytopathicity
Description: Human CD4 ^+ T-lymphocyte CEM cell cultures were inoculated with HIV-1 and HIV-2 and exposed to adefovir, tenofovir, or PMEO-DAPym. […]

HSV-2 (G) [1] = assay: HSV-2 infection of primary monocyte/macrophage (M/M) cultures; type: cell-based; conditions: for inhibition at 0.0032 µg/mL / inhibition at 0.016 µg/mL / inhibition at 0.08 µg/mL / inhibition at 0.4 µg/mL / inhibition at 2 µg/mL / inhibition at 10 µg/mL / inhibition at 50 µg/mL: Human alphaherpesvirus 2, 144 h, day 6, read-out: Inhibition of viral replication (% to control); for EC50: Human alphaherpesvirus 2; for inhibition of HSV-2 replication: 2- to 10-µg/ml
Procedure: We obtained human PBMC from the blood of healthy seronegative donors using Ficoll–Hypaque density gradient centrifugation. The PBMC were resuspended in RPMI 1640 medium supplemented with 20% heat-inactivated serum and then seeded into 48-well plates (1.8×10^6 cells/well). M/M were separated by adherence onto plastic. After 5 days, non-adherent cells were carefully removed by repeated gentle washings with warm medium, and adherent M/M were cultured for an additional 3 days to mature and to form a monolayer. M/M were estimated to be 10^5 cells/well at the time of infection. […]. Similarly, macrophage cultures were treated with the same concentrations of adefovir and tenofovir. Macrophage cultures were then infected with HSV-2 (G) (100 TCID50) in the presence of the compounds. After 2 h of adsorption, the cultures were extensively washed to remove any residual virus particles. Fresh complete medium and compounds, at the established concentrations, were then added to the cultures. Appropriate positive (infected but not treated) and mock-infected negative (uninfected and untreated) M/M controls were run for each experiment as well. All assays were performed in triplicate. […] We determined the amount of infectious virus in the supernatants 5–6 days after infection using the cytopathic effect assay. Tenfold serially diluted supernatants were added to confluent monolayers of Vero cells in 96-well plates (100 µl/well, 6 parallel wells). […] The titers of virus produced were calculated according to the Reed and Muench method and expressed as 50% tissue culture infective dose per mL (TCID50/mL).

CCR5 = assay: Flow cytometry of CCR5 expression on PBMC; type: cell-based, human; conditions: for decrease of CCR5 expression on the cell surface / CCR5 decrease: 24 h; for CCR5 expression, % of control: 72 h
Procedure: Figure 9 Expression of CC-chemokines, CCR5 and chemokine mRNA expression in PBMC cultures after drug treatment. Panel A: Production of CC-chemokines by PBMC and the effects of adefovir, tenofovir, and PMEO-DAPym on the expression of the CCR5 receptor. Freshly isolated PBMCs from four healthy donors were incubated for 24 h with medium only (NC) or with adefovir, tenofovir, or PMEO-DAPym. We collected the supernatants and measured the concentrations of MIP-1α (▪), MIP-1β (▴), and RANTES (•) using a Bioplex system (Bio-Rad, Hercules, CA). Shown are means ± SEM. The cells were also collected, and the expression of the CCR5 receptor (□) was measured with flow cytometry using the PE-labeled CCR5 (clone 2D7) mAb; it is shown as percentage of control (± SEM) from four independent representative experiments. Panel B: Chemokine mRNA expression upon PMEO-DAPym exposure to PBMC. RT-PCR analysis of MIP-1α, MIP-1β, RANTES, and GAPDH (control) expression in PBMC treated with 100-µg/ml PMEO-DAPym for 4 h. Similar results were obtained with PBMC from three different donors. Results from one representative donor are shown.
Figure 11 Expression of the HIV-1 coreceptor CCR5 on PBMCs after treatment with adefovir, tenofovir, or PMEO-DAPym. We treated PBMC with the drugs for 24 h and collected and analyzed the cells using flow cytometry. Cell surface expression of CD4 and the chemokine receptor CCR5 were measured with the fluorescein isothiocyanate-labeled CD4 specific mAb (clone SK3) and the phycoerythrin-labeled CCR5 (clone 2D7). The percentages of positive cells in each quadrant of the dot plots are given. The data shown are from one representative experiment that was independently repeated at least four times. TEXT PRINTED IN THE PICTURE: adefovir: 54% (500 μg/ml); 7% (500 μg/ml); 6% (500 μg/ml) | tenofovir: 50% (500 μg/ml); 6% (500 μg/ml); 5% (500 μg/ml) | PMEO-DAPym: 54% (500 μg/ml); 1% (500 μg/ml); 2% (500 μg/ml); 55% (100 μg/ml); 1% (100 μg/ml); 2% (100 μg/ml); 54% (20 μg/ml); 3% (20 μg/ml); 3% (20 μg/ml) DOUBTS OF THE COPYIST ABOUT THIS PICTURE: The percentages are quadrant labels in dot plots (axes: CD4 expression, CCR5 expression). No measure is printed beside them. For each plot they are listed in the order upper left, upper right, lower right. / The Control plot (51%, 8%, 6%) is left out because it is not a substance.
PBMC were cultured in the presence of adefovir, tenofovir, and PMEO-DAPym and incubated at 37°C in a humidified, 5% CO2-controlled atmosphere. The expression of cellular activation markers was measured after 3 days of culture. Briefly, after washing the cells with PBS containing 2% FCS, we incubated them with PerCP-conjugated anti-CD4 mAb (clone SK3) in combination with PE-conjugated anti-CD25, anti-CD69, or anti-HLA-DR mAbs for 30 min at room temperature. For aspecific background staining, cells were stained in parallel with Simultest Control IgG γ1/γ2a and PerCP-conjugated mouse IgG1. Finally, the cells were washed with PBS, fixed with 1% formaldehyde solution, and analyzed with a FACSCalibur (BD Biosciences, San Jose, CA); data were acquired with CellQuest software and further analyzed with the FLOWJO software (Tree Star, San Carlos, CA). […], and PBMC were incubated with PerCP-conjugated anti-CD4 mAb (clone SK3) in combination with APC-conjugated anti-CXCR4 mAb (clone 12G5) and PE-conjugated anti-CCR5 (clone 2D7) or anti-CXCR3 (clone 1C6). To evaluate the biological effects of the β-chemokines produced by drug-treated PBMC, freshly isolated PBMC were incubated for 1 h at 37°C with supernatants collected from PBMC cultures treated with compounds for 24 h. Then, cells were incubated with PerCP-conjugated anti-CD4 mAb (clone SK3) in combination with PE-conjugated anti-CCR5 mAb (clone 2D7) for 30 min at room temperature. […]

HSV-2 (G) [2] = assay: HSV-2 infection of primary monocyte/macrophage (M/M) cultures; type: cell-based
[3] = HSV-2 (G), human monocyte/macrophages

SMILES	EC50 (HIV-1(IIIB)) [µg/mL]	Virus production by HSV2-infected macrophages 6 days after infection (CPE reduction) (HSV-2 (G) [1]; 0.0032 µg/ml)	Cytopathicity (CPE) on macrophages 6 days after infection % CPE (HSV-2 (G) [1]; 0.016 µg/ml) [%]	Virus production by HSV2-infected macrophages 6 days after infection (CPE reduction) (HSV-2 (G) [1]; 0.016 µg/ml)	Cytopathicity (CPE) on macrophages 6 days after infection % CPE (HSV-2 (G) [1]; 0.08 µg/ml) [%]	Virus production by HSV2-infected macrophages 6 days after infection (CPE reduction) (HSV-2 (G) [1]; 0.08 µg/ml)	Virus production by HSV2-infected macrophages 6 days after infection (CPE reduction) (HSV-2 (G) [1]; 0.4 µg/ml)	Virus production by HSV2-infected macrophages 6 days after infection (CPE reduction) (HSV-2 (G) [1]; 10 µg/ml)	Virus production by HSV2-infected macrophages 6 days after infection (CPE reduction) (HSV-2 (G) [1]; 50 µg/ml)	inhibition at 0.0032 µg/mL (HSV-2 (G) [1]; 0.0032 µg/ml, M/M) [%]	inhibition at 0.016 µg/mL (HSV-2 (G) [1]; 0.016 µg/ml, M/M) [%]	inhibition at 0.08 µg/mL (HSV-2 (G) [1]; 0.08 µg/ml, M/M) [%]	inhibition at 0.4 µg/mL (HSV-2 (G) [1]; 0.4 µg/ml, M/M) [%]	inhibition at 2 µg/mL (HSV-2 (G) [1]; 2 µg/ml, M/M) [%]	inhibition at 10 µg/mL (HSV-2 (G) [1]; 10 µg/ml, M/M) [%]	inhibition at 50 µg/mL (HSV-2 (G) [1]; 50 µg/ml, M/M) [%]	EC50 (HSV-2 (G) [1]; [3]) [µg/mL]	inhibition of HSV-2 replication (HSV-2 (G) [1]; M/M)	Cytopathicity (CPE) on macrophages 6 days after infection % CPE (HSV-2 (G) [2]; 0.0032 µg/ml) [%]	Cytopathicity (CPE) on macrophages 6 days after infection % CPE (HSV-2 (G) [2]; 0.4 µg/ml) [%]	other results
Nc1cc(OCCOCP(=O)(O)O)nc(N)n1 [PMEO-DAPym, 6-phosphonylmethoxyethoxy-2,4-diaminopyrimidine]	0.9 ± 0.4 (≈ 3.41 µM)	1.5×10^4 TCID50/ml	80	1.35×10^4 TCID50/ml	55	7.5×10^3 TCID50/ml	9.5×10^2 TCID50/ml	No virus	No virus	< 0	3.5	46	93	98 to 100	100	100	0.09 ± 0.03 (≈ 0.341 µM)	virtually completely inhibited	85	35	Virus production by HSV2-infected macrophages 6 days after infection (CPE reduction) (HSV-2 (G) [1]; 2 µg/ml): 2.26×10^2 TCID50/ml; Cytopathicity (CPE) on macrophages 6 days after infection % CPE (HSV-2 (G) [1]; 10 µg/ml): 0–5%; decrease of CCR5 expression on the cell surface (CCR5; 20 µg/ml): 60%; decrease of CCR5 expression on the cell surface (CCR5; 100 µg/ml): ≥ 75%; decrease of CCR5 expression on the cell surface (CCR5; 500 µg/ml): ≥ 75%; CCR5 expression, % of control (CCR5; 20 µg/ml): 60%; CCR5 expression, % of control (CCR5; 100 µg/ml): 38%; CCR5 expression, % of control (CCR5; 500 µg/ml): 10%; Cytopathicity (CPE) on macrophages 6 days after infection % CPE (HSV-2 (G) [2]; 2 µg/ml): 0–15%
C[C@H](Cn1cnc2c(N)ncnc21)OCP(=O)(O)O [Tenofovir, 9-(2-phosphonylmethoxypropyl)adenine]	0.36 ± 0.24 (≈ 1.25 µM)	1.2×10^4 TCID50/ml	75	1.3×10^4 TCID50/ml	60	9×10^3 TCID50/ml	1.9×10^3 TCID50/ml	No virus	No virus	14	7	36	86	98	100	100	0.2 ± 0.06 (≈ 0.696 µM)	virtually completely inhibited	85	40	Cytopathicity (CPE) on macrophages 6 days after infection % CPE (HSV-2 (G) [1]; 10 µg/ml): 10%; CCR5 decrease (CCR5): Neither adefovir nor tenofovir induced a marked CCR5 decrease; Cytopathicity (CPE) on macrophages 6 days after infection % CPE (HSV-2 (G) [2]; 2 µg/ml): 30%
Nc1ncnc2c1ncn2CCOCP(=O)(O)O [Adefovir, 9-(2-phosphonylmethoxyethyl)adenine]	0.96 ± 0.24 (≈ 3.51 µM)	1.6×10^4 TCID50/ml	60	7.2×10^3 TCID50/ml	40	1.8×10^3 TCID50/ml	8×10^2 TCID50/ml	No virus	No virus	< 0	49	87	94	100	100	100	0.016 ± 0.004 (≈ 0.0586 µM)	virtually completely inhibited	80	30	Virus production by HSV2-infected macrophages 6 days after infection (CPE reduction) (HSV-2 (G) [1]; 2 µg/ml): No virus; EC50 (HSV-2 (G) [1]; M/M, range over the compounds): 0.02 to 0.2 µg/mL (≈ 0.0732 to 0.732 µM); CCR5 decrease (CCR5): Neither adefovir nor tenofovir induced a marked CCR5 decrease; Cytopathicity (CPE) on macrophages 6 days after infection % CPE (HSV-2 (G) [2]; 2 µg/ml): 0–5%
